For data set [1] the following is noted: 101 kPa, Liquid; for viscosity: Capillary tube (Ostwald / Ubbelohde) method; for mass density: Vibrating tube method.
Data set [2] is described as follows: xn = mol fraction of the nth substance listed. The note with it: 101 kPa, Liquid, x2 = 0; for viscosity: Capillary tube (Ostwald / Ubbelohde) method; for mass density: Vibrating tube method.

Numbers after ± are expanded uncertainties.

`CCCCCCn1cc[n+](C)c1.F[B-](F)(F)F` [1-hexyl-3-methylimidazolium tetrafluoroborate]: the viscosity is on record as 232.65 mPa·s in data set [1] (293.15 K); 130.02 mPa·s in data set [1] (303.15 K); 78.24 mPa·s in data set [1] (313.15 K); 50.3 mPa·s in data set [1] (323.15 K); 34.02 mPa·s in data set [1] (333.15 K). Also, the mass density in data set [1] (293.15 K) is given as 1149.24 ± 5.1 kg/m3; in data set [1] (303.15 K) it was 1142.48 ± 5.1 kg/m3; in data set [1] (313.15 K) it was 1135.79 ± 5.1 kg/m3; in data set [1] (323.15 K), 1129.08 ± 5.1 kg/m3; in data set [1] (333.15 K), 1122.37 ± 5.1 kg/m3.

Take `CCCO` [propan-1-ol]: the viscosity in data set [1] (293.15 K) is reported as 2.204 ± 0.02 mPa·s; in data set [1] (303.15 K), 1.615 ± 0.015 mPa·s; in data set [1] (313.15 K), 1.188 ± 0.011 mPa·s; in data set [1] (323.15 K), 0.8796 ± 0.0084 mPa·s. The mass density stood at 809.62 ± 5 kg/m3 in data set [1] (293.15 K); 801.43 ± 5 kg/m3 in data set [1] (303.15 K); 793.09 ± 5 kg/m3 in data set [1] (313.15 K); 784.54 ± 5 kg/m3 in data set [1] (323.15 K); 775.74 ± 5 kg/m3 in data set [1] (333.15 K).

With `CCCO` [propan-1-ol] + CCCCCCn1cc[n+](C)c1.F[B-](F)(F)F, the viscosity was 2.204 ± 0.02 mPa·s in data set [2] (293.15 K); 1.615 ± 0.015 mPa·s in data set [2] (303.15 K); 1.188 ± 0.011 mPa·s in data set [2] (313.15 K); 0.8796 ± 0.0084 mPa·s in data set [2] (323.15 K); 0.5985 ± 0.006 mPa·s in data set [2] (333.15 K). The mass density is 809.62 ± 5 kg/m3 in data set [2] (293.15 K); 801.43 ± 5 kg/m3 in data set [2] (303.15 K); 793.09 ± 5 kg/m3 in data set [2] (313.15 K); 784.54 ± 5 kg/m3 in data set [2] (323.15 K); 775.74 ± 5 kg/m3 in data set [2] (333.15 K).
